# How the values were obtained:
# [1] = parameters: species or system rhesus macaques (Macaca mulatta); details: rhesus monkey, in vivo, po, 20 mg/kg
# Description: Blood samples were collected for clinical evaluation and pharmacokinetic (PK) analysis (see Table S2 in the supplemental material).
# Details of in vivo PK studies of KDU691 and LMV599 in CD-1 mice and monkeys can be found in the supplemental material.
# P. cynomolgi sporozoite production
# A monkey was infected with […] P. cynomolgi M strain blood stage parasites, thawed from a first passage stock (i.e. blood stage parasites from a monkey infected with P. cynomolgi M strain sporozoites). For each batch of sporozoites needed, a single monkey was infected with P. cynomolgi blood stage parasites.
# At day 11 and 12 post infection 9 mL infected blood was collected into a Lithium-heparinised tube. The blood was kept at 38°C and fed approximately 500 three to five days old female Anopheles stephensi mosquitoes Sind-Kasur strain Nijmegen (Nijmegen University Medical Centre St Radboud, Department of Medical Microbiology) using a glass feeder system as described by Ponnudurai et al.. After the second bleed, the monkey was cured by three daily intramuscular injections of 7.5 mg/kg chloroquine, monitored for parasite clearance 24 days after chloroquine treatment and returned to colony.
# Mosquitoes were kept in climate chambers at 25 °C and 80% humidity and were fed 5% D -glucose on cotton pads daily. Seven days after feeding on the infected rhesus blood, oocyst numbers were determined in midguts of ten individuals, using 1% mercurochrome stain. Mosquitoes were given a second (uninfected) blood meal immediately afterwards to promote sporozoite maturation and invasion of the salivary glands. Sporozoites were isolated from the P. cynomolgi infected mosquitoes around day16 after the infected blood meal.
# In vivo monkey infection and treatment procedures
# Sporozoites were isolated from the P. cynomolgi infected mosquitoes around day16 after the infected blood meal. For this, mosquitoes were collected in a beaker and killed with 70% ethanol. After four washes in Leibovitz’ L15 medium containing 3% FCS and 2% pen/strep, salivary glands were dissected.
# Salivary glands were kept on ice at all times, sporozoites were liberated by pottering. The sporozoites were washed with PBS, counted in a Burker-Turk chamber, and diluted to 100,000 spz/mL in PBS.
# Aliquots of 1 mL were prepared and injected into monkeys via intravenous (i.v.) injection. […]
# group (691-RC-high) and a control group (691-C)
# KDU691 was formulated as a micro suspension in 0.5% Methylcellulose/0.5% Tween 80 in water, maximum one hour before dosing. The amount of KDU691 sufficient to treat all animals of one group was weighed, a microsuspension of 10 mg/mL in methylcellulose/tween was made and sonicated (Soniprep 150, Sanyo) with an amplitude of 12-15 µm for 15 min. The dose for each monkey was transferred to a 50 mL tube, which was vortexed extensively just before administration.
# To collect samples for KDU691 PK analysis in monkeys, approximately 100 µL blood was taken from the calf vein for each time point and immediately spotted onto DBS filters (PKI Bioanalysis cards, Perkin Elmer). […]
# The monkeys of the LMV599/PQ experiment were cured with a five day CQ treatment (7.5 mg/kg, i.m. administration) at the first relapse and were monitored until the second relapse after which they were cured with CQ (7.5 mg/kg, intramuscular (i.m.) for five days) plus PQ (1.8 mg/kg for 14 days). […]
# [2] = tested on: Plasmodium berghei luciferase sporozoites; parameters: method as in PMID 25147620; details: single dose of 7.5 mg/kg after sporozoite infection; cited from earlier work
structure (smiles),measurement,setting,value
CNC(=O)c1ccc(-c2cnc3cnc(C(=O)N(C)c4ccc(Cl)cc4)cn23)cc1 [KDU691],% fT > TRE,[1],16.7%
same,AUC,[1],38.82 µM·h
same,Cmax,[1],4.31 µM
same,fAUC/TRE,[1],13.08
same,fCmax/TRE,[1],1.45
same,causal prophylactic protection in mice,[2],complete protection

# Source: paper PMC4862498, “PI4 Kinase Is a Prophylactic but Not Radical Curative Target in Plasmodium vivax-Type Malaria Parasites” (Antimicrobial Agents and Chemotherapy, 2016)
